Data: patent publication US20060110456A1, “Method for biocidal and/or biostatic treatment and compositions therefor” (NATIONAL UNIVERSITY OF SINGAPORE, priority 2004, published 2006)
In brackets after ≈: the same amount, converted by molar mass. Entries after “also recorded” stand apart in the source; their conditions may differ. Where a name gives a salt, the structure may show the parent alone. Read-outs that look alike come from different tables or passages of the source.

Columns and labels:
[1] = tested on: Balanus amphitrite stage II naupliar larvae
Method: (§1) Pharmaceuticals from the respective manufacturers were treated in the following way. A pill containing a known amount of active ingredient (as stated in product information) was ground in a mortar and pestle and a suspension of 2 mg ml^−1 generated in de-ionized water. This stock solution is stored at −20° C. in 4 ml amber screw cap vials. For the bioassays, 250 ul of stock solution is added to 10 ml of 1 um filtered seawater. This suspension was then sonicated for 10 minutes. Serial dilutions of this 50 μg ml^−1 seawater solution, or suspension, with seawater was done to generate the required range of concentrations.
Stage II naupliar larvae used in tests were obtained from Balanus amphitrite adults collected from inter-tidal rock walls at Kranji mangrove, Singapore. Larvae were collected from a container of adults by attraction to a point source of light and transferred to 500 ml of fresh seawater. Next, larvae were re-concentrated with a fiber optic light and added to assays.
Duplicate assays were conducted in 2 ml micro-centrifuge tubes (Axygen MCT-200-C) in 1.5 ml of filtered seawater for 22 to 24 hours. The assays were repeated for confirmation. There were four controls (vehicle only, 0 μg ml^−1), and 2 tubes of each for each test concentration. The assay was initiated by addition of barnacle nauplii in 50 to 100 μl of seawater.
After 22 to 24 hours of incubation at 25-27° C., solutions containing test animals were transferred to a Bogorov tray and scored as living or dead. Moribund larvae were scored as dead. Results were confirmed by repeating the assay. […] If data were not appropriate for probit analysis, the LC50 was estimated from graphed data.

[2] = tested on: Balanus amphitrite cyprids; test: whole plant or invertebrate; settings: for IC50: Amphibalanus amphitrite, 24 h, read-out: ED50; for Prevention of settlement of barnacle cyprids: crude rank, best (1) to worst (8); for Effect on settlement of cyprids: in words
Method: as §1
This method is now standard practice for many antifouling screening of novel compounds.
Barnacle larvae from field-collected adults were reared on an algal mixture of 1:2:2 v/v of Rhodomonas salina, Tetraselmis suecica and Chaetoceros muelleri at 25° C., at approximately 5×10^5 cells per ml density. On this regime, larvae metamorphose to cyprids in 5 days.
Test solutions were made up to twice the required final concentration. 1 ml of test solution was added into each well, and cyprids were transferred into each well in 1 ml of seawater. Assays were done in triplicate. After 24 hours, larvae that had attached and metamorphosed were enumerated and the result expressed as percentage settlement. Larvae not attached were scored as not settled.
The Therapeutic Ratio, or LC50/EC50, is a way of assessing the effectiveness of the compound in relation to its toxicity. […] LC50 and EC50 estimates and the therapeutic ratio should be considered as working values providing an estimation of potency, rather than as absolutes.

marine bacteria = test: Growth assay (absorbance, 96-well plates); assay type: cell-based, marine bacteria isolated from Singapore fouling communities; settings: for Number of strains with strongly inhibited growth / Inhibition of bacterial growth: 25 μg ml^−1; for Number of strains with strongly inhibited growth: 25 strains of Table 5
Method: The dried powder was re-suspended in sterile deionized water and made up to 2 mg ml^−1.
The same bacterial strains were used and cultured the same way as in disc inhibition assay. Cells were harvested by centrifugation at 300 rpm for 10 min. The supernatant was discarded and the pellet re-suspended using sterile seawater collected from St. John's island, Singapore. The concentration of bacterial cells was adjusted to an absorbance of approximately 0.6 using a spectrophotometer (Beckman DU530) at wavelength 600 nm.
The growth with response to the pharmaceuticals was assumed to be proportional to the absorbance of the bacteria. […] To each well 25 μl of each drug solution (concentration adjusted to 100 μg ml^−1) were pipetted into three wells followed by 10 μl of broth and 65 μl of sterile seawater. For wells that were to contain bacteria, 60 μl of sterile seawater was used instead. All wells used for growth studies were prepared in triplicate and inoculated with 5 μl of the bacterial suspension. Blanks consisting of the respective volumes of pharmaceutical with Marine Broth and distilled water, if needed, were prepared in triplicate and inoculated with 5 μl of sterile seawater.
The absorbance (A600) of each well was read in a plate reader (Sunrise Tecan Model F039300) immediately (time=0 hours) and after 1, 2, 3, 4, 20, 23 and 28 hours. Plates were incubated overnight inside a moistened airtight container.
Any changes in absorbance were plotted and compared with control. The mean absorbance (mean bac) from the bacteria was obtained by deducting the absorbance values of blank wells (containing seawater and broth only) from that for the control wells (containing bacteria in seawater and broth only). The absorbance arising from the drugs was obtained from the 0 hr reading for wells containing drugs and bacteria, minus the wells with drugs alone (mean “drug”). The growth assays were repeated three times.

[3] = barnacle nauplii, 22 to 24 hours, concentration that caused 50% mortality

CN1CCN(C(c2ccccc2)c2ccccc2)CC1 [CYZ, Cyclizine hydrochloride]
LD50 [1, 3]: 61.05 ng/mL | Toxicity to barnacle nauplii and cyprids ([1]; in vivo): toxic to barnacle nauplii and cyprids | IC50 [2]: 0.156 µg/mL | Prevention of settlement of barnacle cyprids [2]: 4

CCCCCCCCCC(=O)OC1(c2ccc(Cl)cc2)CCN(CCCC(=O)c2ccc(F)cc2)CC1 [HDL, haloperidol decanoate]
LD50 ([1]; Balanus amphitrite, in vivo): 252.68 ng/mL | Toxicity to barnacle nauplii and cyprids ([1]; in vivo): toxic to barnacle nauplii and cyprids | IC50 [2]: 0.119 µg/mL (≈ 0.225 µM) | Prevention of settlement of barnacle cyprids [2]: 3

CN(C)C(=O)C(CCN1CCC(O)(c2ccc(Cl)cc2)CC1)(c1ccccc1)c1ccccc1 [IMD, Loperamide hydrochloride]
LD50 [1, 3]: 241.34 ng/mL | IC50 [2]: > 5 µg/mL | Prevention of settlement of barnacle cyprids [2]: 8 | Effect on settlement of cyprids [2]: not effective against cyprids

CN1CCN(CCCN2c3ccccc3Sc3ccc(Cl)cc32)CC1 [PCZ, prochlorperazine maleate]
LD50 [1, 3]: 3.54 ng/mL | Toxicity to barnacle nauplii and cyprids ([1]; in vivo): very toxic to nauplii and cyprids | Number of strains with strongly inhibited growth (marine bacteria): 11 | Growth response (absorbance over time) (marine bacteria; 25 μg ml−1, strain named in the value): slight growth response of bacteria strain 11 | Inhibition of bacterial growth (marine bacteria; strain 1 (Rhodovulum)): 0 | Inhibition of bacterial growth (marine bacteria; strain 2 (Erythrobacter)): 0 | Inhibition of bacterial growth (marine bacteria; strain 3 (Erythrobacter)): +++ (+++ denotes little or no growth, p < 0.001) | Inhibition of bacterial growth (marine bacteria; strain 4 (Bacillus)): +++ (+++ denotes little or no growth, p < 0.001) | Inhibition of bacterial growth (marine bacteria; strain 6 (Vibrio)): 0 | Inhibition of bacterial growth (marine bacteria; strain 7 (Vibrio)): + (+ denotes growth present but inhibited, p < 0.01) | Inhibition of bacterial growth (marine bacteria; strain 8 (Bacillus)): +++ (+++ denotes little or no growth, p < 0.001) | Inhibition of bacterial growth (marine bacteria; strain 9 (Bacillus)): +++ (+++ denotes little or no growth, p < 0.001) | Inhibition of bacterial growth (marine bacteria; strain 10 (Halobacillus)): +++ (+++ denotes little or no growth, p < 0.001) | Inhibition of bacterial growth (marine bacteria; strain 11 (Pseudomonas)): + (+ denotes growth present but inhibited, p < 0.01) | Inhibition of bacterial growth (marine bacteria; strain 12 (Gordonia)): +++ (+++ denotes little or no growth, p < 0.001) | Inhibition of bacterial growth (marine bacteria; strain 13 (Bacillus)): +++ (+++ denotes little or no growth, p < 0.001) | Inhibition of bacterial growth (marine bacteria; strain 14 (Vibrio)): 0 | Inhibition of bacterial growth (marine bacteria; strain 16 (Pseudoalteromonas)): 0 | Inhibition of bacterial growth (marine bacteria; strain 17 (Gordonia)): +++ (+++ denotes little or no growth, p < 0.001) | Inhibition of bacterial growth (marine bacteria; strain 18 (Microbacterium)): +++ (+++ denotes little or no growth, p < 0.001) | Inhibition of bacterial growth (marine bacteria; strain 19 (Erythrobacter)): +++ (+++ denotes little or no growth, p < 0.001) | Inhibition of bacterial growth (marine bacteria; strain 20): + (+ denotes growth present but inhibited, p < 0.01) | Inhibition of bacterial growth (marine bacteria; strain 21): 0 | Inhibition of bacterial growth (marine bacteria; strain 24): 0 | Inhibition of bacterial growth (marine bacteria; strain 26): 0 | Inhibition of bacterial growth (marine bacteria; strain 27): + (+ denotes growth present but inhibited, p < 0.01) | Inhibition of bacterial growth (marine bacteria; strain 28): 0 | Inhibition of bacterial growth (marine bacteria; strain 29): + (+ denotes growth present but inhibited, p < 0.01) | Inhibition of bacterial growth (marine bacteria; strain 30): +++ (+++ denotes little or no growth, p < 0.001) | IC50 [2]: 0.174 µg/mL | Prevention of settlement of barnacle cyprids [2]: 2

CNCCC(Oc1ccc(C(F)(F)F)cc1)c1ccccc1 (stereo not shown) [PZC, fluoxetine hydrochloride]
Number of strains with strongly inhibited growth (marine bacteria): 3 | Inhibition of bacterial growth (marine bacteria; strain 1 (Rhodovulum)): 0 | Inhibition of bacterial growth (marine bacteria; strain 2 (Erythrobacter)): + (+ denotes growth present but inhibited, p < 0.01) | Inhibition of bacterial growth (marine bacteria; strain 3 (Erythrobacter)): + (+ denotes growth present but inhibited, p < 0.01) | Inhibition of bacterial growth (marine bacteria; strain 4 (Bacillus)): 0 | Inhibition of bacterial growth (marine bacteria; strain 6 (Vibrio)): 0 | Inhibition of bacterial growth (marine bacteria; strain 7 (Vibrio)): + (+ denotes growth present but inhibited, p < 0.01) | Inhibition of bacterial growth (marine bacteria; strain 8 (Bacillus)): + (+ denotes growth present but inhibited, p < 0.01) | Inhibition of bacterial growth (marine bacteria; strain 9 (Bacillus)): + (+ denotes growth present but inhibited, p < 0.01) | Inhibition of bacterial growth (marine bacteria; strain 10 (Halobacillus)): +++ (+++ denotes little or no growth, p < 0.001) | Inhibition of bacterial growth (marine bacteria; strain 11 (Pseudomonas)): + (+ denotes growth present but inhibited, p < 0.01) | Inhibition of bacterial growth (marine bacteria; strain 12 (Gordonia)): + (+ denotes growth present but inhibited, p < 0.01) | Inhibition of bacterial growth (marine bacteria; strain 13 (Bacillus)): + (+ denotes growth present but inhibited, p < 0.01) | Inhibition of bacterial growth (marine bacteria; strain 14 (Vibrio)): 0 | Inhibition of bacterial growth (marine bacteria; strain 16 (Pseudoalteromonas)): 0 | Inhibition of bacterial growth (marine bacteria; strain 17 (Gordonia)): +++ (+++ denotes little or no growth, p < 0.001) | Inhibition of bacterial growth (marine bacteria; strain 18 (Microbacterium)): + (+ denotes growth present but inhibited, p < 0.01) | Inhibition of bacterial growth (marine bacteria; strain 19 (Erythrobacter)): + (+ denotes growth present but inhibited, p < 0.01) | Inhibition of bacterial growth (marine bacteria; strain 20): + (+ denotes growth present but inhibited, p < 0.01) | Inhibition of bacterial growth (marine bacteria; strain 21): 0 | Inhibition of bacterial growth (marine bacteria; strain 24): 0 | Inhibition of bacterial growth (marine bacteria; strain 26): 0 | Inhibition of bacterial growth (marine bacteria; strain 27): + (+ denotes growth present but inhibited, p < 0.01) | Inhibition of bacterial growth (marine bacteria; strain 28): 0 | Inhibition of bacterial growth (marine bacteria; strain 29): + (+ denotes growth present but inhibited, p < 0.01) | Inhibition of bacterial growth (marine bacteria; strain 30): +++ (+++ denotes little or no growth, p < 0.001) | Prevention of settlement of barnacle cyprids [2]: 7

Cc1nccn1CC1CCc2c(c3ccccc3n2C)C1=O (stereo not shown) [ZFN, ondansetron hydrochloride]
LD50 [1, 3]: 468.96 ng/mL | IC50 [2]: 0.242 µg/mL | Prevention of settlement of barnacle cyprids [2]: 5

CN[C@H]1CC[C@@H](c2ccc(Cl)c(Cl)c2)c2ccccc21.Cl [ZLT, sertraline hydrochloride]
LD50 [1, 3]: 1.58 ng/mL | Toxicity to barnacle nauplii ([1]; crude rank, best (1) to worst (8)): 1 | ED50 ([2]; barnacle cyprids, 24 hours, concentration that caused 50% settlement inhibition): 0.50185 µg/mL | Prevention of settlement of barnacle cyprids [2]: 6

Cc1cc2c(s1)Nc1ccccc1N=C2N1CCN(C)CC1 [ZPX, olanzapine]
LD50 [1, 3]: 505.82 ng/mL | IC50 [2]: 0.00231 µg/mL (≈ 0.00739 µM) | Prevention of settlement of barnacle cyprids [2]: 1 | Effect on settlement of cyprids [2]: at concentrations less than 1 ug ml^−1, the cyprids were not killed but were not able to settle; also recorded: prevented the settlement of cyprids | Mortality of cyprids ([2]; settlement bioassay wells): not very different from the control
